Laboratory results published in article PMC3566143, “Pantothenamides Are Potent, On-Target Inhibitors of Plasmodium falciparum Growth When Serum Pantetheinase Is Inactivated” (PLoS ONE, 2013).

Assays:
[1] = system: P. falciparum PanK; test: [14C]pantothenate phosphorylation assay with P. falciparum lysate; assay type: biochemical, Plasmodium falciparum; settings: 100 µM pantothenamide, 0.2 µM [14C]pantothenate, 10 min
Method: To assess the effect of the pantothenamides on pantothenate phosphorylation by P. falciparum PanK, the phosphorylation of [^14C]pantothenate by P. falciparum lysates was measured in the presence and absence of a single concentration of each pantothenamide. P. falciparum lysate was prepared from trophozoite stage parasites “isolated” from their host erythrocyte by treatment with 0.05% (w/v) saponin (essentially as described by Saliba et al.), and washed (five times) in HEPES-buffered saline (125 mM NaCl, 5 mM KCl, 20 mM D-glucose, 25 mM HEPES, 1 mM MgCl2, pH 7.1). Lysates were prepared as described by van Schalkwyk et al., except that 10 mM potassium phosphate, pH 7.4 (rather than 10 mM Tris, pH 7.4), was used to lyse the cells. Aliquots of lysate were stored at −20°C. The concentration of cell lysates was determined from cell counts made using an improved Neubauer hemocytometer.
[^14C]Pantothenate phosphorylation was assayed using the Somogyi reagent essentially as described by Saliba et al., except that pantothenate phosphorylation was terminated by heat denaturation (rather than acid denaturation) of the protein in reaction aliquots. Briefly, P. falciparum lysate was added to solutions (at 37°C) of 50 mM Tris, 5 mM ATP, 5 mM MgCl2, at pH 7.4, containing [^14C]pantothenate (at a final concentration of 0.01 µCi/mL, or 0.2 µM), and a pantothenamide (at a final concentration of 100 µM) or an equivalent volume of solvent. Typically, lysate prepared from 5.4–6.5×10^7 parasites was present in each mL of reaction solution. Zero phosphorylation control reactions were prepared by adding a corresponding volume of 10 mM potassium phosphate instead of parasite lysate. Following a ten minute incubation at 37°C (a period during which pantothenate phosphorylation increased linearly with time in the absence of inhibitors) 200 µL aliquots of the [^14C]pantothenate phosphorylation reactions were transferred in duplicate to microcentrifuge tubes, and immediately incubated at 95°C for 10 min to terminate phosphorylation. Terminated reaction samples were centrifuged at 15 800×g for 10 min to pellet the denatured protein, before two aliquots of each supernatant (typically 80 µL) were transferred to new microcentrifuge tubes. To one aliquot, 500 µL Somogyi reagent was added, and to the other, 500 µL water was added. The samples were processed for determination of phosphorylated [^14C]pantothenate as described previously.

[2] = system: Albumax II; test: fluorescamine-based pantothenamide hydrolysis assay with Albumax II; assay type: in vitro ADME, bovine; settings: 200 µM compound, Albumax II 0.6% (w/v), 37°C
Method: Hydrolysis of compound 12 to pantothenate and isobutylamine was measured using a modification of a fluorescence-based assay described previously for the measurement of N-acetyl-1-D-myo-inosityl-2-amino-2-deoxy-α-D-glucopyranoside deacetylase activity, [31]. The assay utilizes fluorescamine (4-phenylspiro-[furan-2(3H),1-phthalan]-3,3′-dione; a non-fluorescent molecule that reacts with primary amines to form a fluorescent product) for the detection of primary amines. Briefly, recombinant human pantetheinase (at a final concentration of 100 ng/mL), Albumax II (at a final concentration 0.6%, w/v), or an equivalent volume of water, was added to solutions (at 37°C) of 100 mM potassium phosphate, pH 7.5, 0.5 mM dithiothreitol, 0.01% (w/v) bovine serum albumin, 0.1% (v/v) DMSO, with or without pantothenamide (at a final concentration of 200 µM). At the appropriate time points, aliquots (30 µL) of the reaction mixtures were removed in duplicate and mixed with 10 µL 20% (v/v) trichloroacetic acid to terminate the reaction. […] The plate was then incubated at 37°C for 10 min before fluorescence was measured using a FLUOstar OPTIMA multidetection microplate reader from BMG LABTECH with excitation and emission wavelengths of 390 and 485 nm, respectively. The fluorescence detected was converted to the corresponding isobutylamine concentration using an isobutylamine standard curve. […]

CC(C)CNC(=O)CCNC(=O)[C@H](O)C(C)(C)CO [Compound 12]
Inhibition of pantothenate phosphorylation at 100 μM [1]: 95 ± 5% | time to completion of hydrolysis [2]: ≤ 24 h | fraction of pantothenamide hydrolyzed during 6 h incubation ([2]; 6 h): over one third
